From patent publication US12622915B2, “Methods of treating PDE IV-mediated diseases or conditions” (Vanda Pharmaceuticals Inc., priority 2020, dated 2026)

Key:
IMQ induced psoriasis = tested on: IMQ induced psoriasis
Method: Test Item Details • 1. Dexamethasone Cat. or Batch no.: BCBM4557V (sigma) • Vehicle for dexamethasone (Veh.1): acetone:ethanol (1:1) • Dose: 0.1 mg/ear & 0.25 mg in back skin • Dose volume: 20 μL/ear & 50 μL on back skin • 2. Crisaborole: PZ0037 (Sigma) • Vehicle (Veh.1): acetone:ethanol (1:1) • Dose: 0.1 mg/ear & 0.25 mg in back skin • Dose volume: 20 μL/ear, 50 μL on back skin • 3. Compound of Formula (I) • Vehicle (Veh.1): acetone:ethanol (1:1) • Dose: 0.1 mg/ear & 0.25 mg in back skin • Dose volume: 20 μL/ear, 50 μL on back skin Dexamethasone and Test Item Preparation and Application: • Strength=5 mg/ml
Application=100 μg/20 pit per each ear+250 μg/50 μL on the back G2 to G4 receive Dexamethasone, Crisaborole or test item: Daily topical treatment (D0-D6): 0.1 mg in 20 μl per ear x both the ears+0.25 mg in 50 μl (on the back) 6-8 hrs after IMQ application.
Disease Induction: Application of 5% IMQ cream 40 mg (back) and 5 mg (per ear—Inner surface) daily from day 0-6.
Treatment: 0.5% Dexamethasone solution: 0.25 mg (back) and 0.1 mg (per ear) 8 hrs post IMQ. • Day −2—Depilation on back region • Day 0—Observations (Body weight; ear thickness using digital microcaliper) • Day 2—Observations (Body weight; ear thickness using digital microcaliper) • Day 4—Observations (Body weight; ear thickness using digital microcaliper) • Day 6—Observations (Body weight; ear thickness using digital microcaliper); Blood collection (PK) and Termination {2 hrs after last dose) • Ear collection: PK, Cytokine, MPO, Thickness • Back skin collection, scoring and thickness measurement • Histopathology (optional)
The dorsal posterior area (2 cm×2 cm) of animals is depilated using a hair trimmer. 5% Imiquimod cream: 50 mg/animal (40 mg on the shaved back+5 mg each on the inner part of right and left ear) QD is applied on days 0 to 5 (Groups 1-4).
The body weight is recorded individually for all animals at receipt, day of randomization, prior to treatment, and once in two days thereafter. The animals are observed for mortality at regular intervals.
2 hrs post compound treatment on day 6, all the animals are euthanized, and ear tissues are collected. The right ear is flash frozen in liquid nitrogen and stored at −80° C. until homogenization for MPO and cytokine estimation.
The half of the left ear is used for drug concentration measurement. The other half of the left ear tissue is used for histopathology. The back skin is collected for visual assessment (scoring) and histopathology.
MPO analysis: Snap frozen ear tissue samples are homogenized in 1× assay buffer provided in the kit. The homogenates are centrifuged at 8000 g for 10 minutes in a refrigerated centrifuge. The supernatants are discarded, and the pellet is resuspended in solubilisation buffer (1× assay buffer containing 0.5% HTABr). The samples are homogenized and subjected to three rounds of freeze thaw followed by brief sonication for 10s. The samples are centrifuged at 12,000 g for 10 minutes in a refrigerated centrifuge and the resulting supernatants are analysed for MPO levels based on a fluorometric detection kit. The Kit utilizes a non-fluorescent detection reagent, which is oxidized in the presence of hydrogen peroxide and MPO to produce its fluorescent analogue. (Enzo Life Sciences; ADI-907-029).
Histopathology: At study termination, posterior dorsal skin and ear skin samples are collected. Skin samples are processed using routine histopathological methods and 4-5 μm paraffin sections are prepared. Tissue sections (3 serial sections/animal) are stained with Hematoxylin and eosin (H&E) to evaluate acanthosis, hyper/parakeratosis and inflammatory cellular infiltration in dermis. Severity of lesions are assessed semi quantitatively on a scale of 0-4 by two independent pathologists (0—normal, 1—mild degree, 2—moderate degree, 3—severe degree and 4—extensive or multiple locations) for each parameter in a blinded manner.

Phosphodiesterase PDE2A = molecular target: T1, Phosphodiesterase PDE2A (Homo sapiens, UniProt O00408); experiment: Phosphodiesterase PDE2A enzyme assay; format: biochemical; settings: N=2, Example 3
T1 construct: host or cells: insect Sf9 cells
T1 sequence (O00408 whole entry): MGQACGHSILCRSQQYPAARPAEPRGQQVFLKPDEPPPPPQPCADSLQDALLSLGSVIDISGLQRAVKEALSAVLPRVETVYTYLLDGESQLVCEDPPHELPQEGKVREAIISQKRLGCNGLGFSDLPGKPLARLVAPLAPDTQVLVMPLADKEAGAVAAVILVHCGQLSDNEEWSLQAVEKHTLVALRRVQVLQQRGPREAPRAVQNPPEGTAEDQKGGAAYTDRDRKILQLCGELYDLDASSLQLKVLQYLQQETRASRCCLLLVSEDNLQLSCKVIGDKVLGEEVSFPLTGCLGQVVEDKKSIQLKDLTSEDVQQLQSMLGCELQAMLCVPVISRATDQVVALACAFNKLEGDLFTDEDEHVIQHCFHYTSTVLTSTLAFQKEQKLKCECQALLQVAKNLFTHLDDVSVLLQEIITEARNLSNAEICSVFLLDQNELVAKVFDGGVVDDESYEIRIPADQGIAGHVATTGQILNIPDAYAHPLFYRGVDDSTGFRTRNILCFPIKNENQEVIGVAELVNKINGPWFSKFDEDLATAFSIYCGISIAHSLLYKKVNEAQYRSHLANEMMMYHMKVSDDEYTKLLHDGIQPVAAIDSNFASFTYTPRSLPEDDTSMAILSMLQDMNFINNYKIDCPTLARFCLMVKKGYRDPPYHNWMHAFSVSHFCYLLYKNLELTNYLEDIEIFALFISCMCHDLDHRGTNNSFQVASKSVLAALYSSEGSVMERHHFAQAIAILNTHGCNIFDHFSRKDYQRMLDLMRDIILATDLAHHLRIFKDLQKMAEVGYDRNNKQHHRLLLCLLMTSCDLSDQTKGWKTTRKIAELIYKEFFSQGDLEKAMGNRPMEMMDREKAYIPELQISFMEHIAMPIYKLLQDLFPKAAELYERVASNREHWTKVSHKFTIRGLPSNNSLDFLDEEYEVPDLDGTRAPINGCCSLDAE
Description: (§1) Reference standards are run as an integral part of each assay to ensure the validity of the results obtained. Reference Compounds: • Phosphodiesterase PDE10A2 Papaverine • Phosphodiesterase PDE11A4 Dipyridamole • Phosphodiesterase PDE1A MMPX • Phosphodiesterase PDE2A EHNA • Phosphodiesterase PDE3A Cilostamide • Phosphodiesterase PDE4A1A Rolipram • Phosphodiesterase PDE4B1 Rolipram • Phosphodiesterase PDE5A Zaprinast • Phosphodiesterase PDE6 Zaprinast • Phosphodiesterase PDE7A IBMX • Phosphodiesterase PDE7B IBMX • Phosphodiesterase PDE8A1 Dipyridamole • Phosphodiesterase PDE9A2 Zaprinast
(§2) Phosphodiesterase PDE4A1A; Phosphodiesterase PDE4B1; Phosphodiesterase PDE10A2; Phosphodiesterase PDE11A4; Phosphodiesterase PDE2A; Phosphodiesterase PDE3A; Phosphodiesterase PDE7A; Phosphodiesterase PDE7B; and Phosphodiesterase PDE8A1: • Source: Human recombinant insect Sf9 cells • Substrate: 0.10 μM FAM-cAMP • Vehicle: 1.00% DMSO • Significance Crit.: ≥50% of max stimulation or inhibition • Incubation Buffer: 10 mM Tris-HCl, pH 7.2, 10 mM MgCl2, 0.05% NaN3, 0.1% phosphate-free BSA • Quantitation Method: Quantitation of Fluorescein-AMP-IMAP • Pre-Incub. Time/Temp: 15 minutes @25° C. • Incubation Time/Temp: 30 minutes @25° C.
(§3) IC50 values are determined by a non-linear, least squares regression analysis using MathIQ™ (ID Business Solutions Ltd., UK). […]

Phosphodiesterase PDE7B = molecular target: T2, Phosphodiesterase PDE7B (Homo sapiens, UniProt Q9NP56); experiment: Phosphodiesterase PDE7B enzyme assay; format: biochemical; settings: N=2, Example 3
T2 construct: host or cells: insect Sf9 cells
T2 sequence (Q9NP56 whole entry): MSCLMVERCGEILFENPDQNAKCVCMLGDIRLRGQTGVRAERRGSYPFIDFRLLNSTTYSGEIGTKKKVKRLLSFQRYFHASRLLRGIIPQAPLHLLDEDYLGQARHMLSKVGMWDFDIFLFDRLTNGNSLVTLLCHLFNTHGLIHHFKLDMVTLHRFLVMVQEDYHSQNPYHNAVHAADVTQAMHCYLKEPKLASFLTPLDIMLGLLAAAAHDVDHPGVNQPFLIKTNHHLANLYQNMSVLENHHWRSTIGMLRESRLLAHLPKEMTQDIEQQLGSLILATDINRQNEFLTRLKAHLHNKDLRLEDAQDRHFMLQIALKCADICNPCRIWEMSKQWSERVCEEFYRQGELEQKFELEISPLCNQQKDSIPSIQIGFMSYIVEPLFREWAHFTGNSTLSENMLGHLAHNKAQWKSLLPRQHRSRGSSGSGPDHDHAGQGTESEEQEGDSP
Description: as §1, §2, §3

[1] = molecular target: T3, Phosphodiesterase PDE10A2 (Homo sapiens, UniProt Q9Y233); experiment: Phosphodiesterase PDE10A2 enzyme assay; format: biochemical; settings: N=2, Example 3
T3 construct: host or cells: insect Sf9 cells
T3 sequence (Q9Y233 267-1055): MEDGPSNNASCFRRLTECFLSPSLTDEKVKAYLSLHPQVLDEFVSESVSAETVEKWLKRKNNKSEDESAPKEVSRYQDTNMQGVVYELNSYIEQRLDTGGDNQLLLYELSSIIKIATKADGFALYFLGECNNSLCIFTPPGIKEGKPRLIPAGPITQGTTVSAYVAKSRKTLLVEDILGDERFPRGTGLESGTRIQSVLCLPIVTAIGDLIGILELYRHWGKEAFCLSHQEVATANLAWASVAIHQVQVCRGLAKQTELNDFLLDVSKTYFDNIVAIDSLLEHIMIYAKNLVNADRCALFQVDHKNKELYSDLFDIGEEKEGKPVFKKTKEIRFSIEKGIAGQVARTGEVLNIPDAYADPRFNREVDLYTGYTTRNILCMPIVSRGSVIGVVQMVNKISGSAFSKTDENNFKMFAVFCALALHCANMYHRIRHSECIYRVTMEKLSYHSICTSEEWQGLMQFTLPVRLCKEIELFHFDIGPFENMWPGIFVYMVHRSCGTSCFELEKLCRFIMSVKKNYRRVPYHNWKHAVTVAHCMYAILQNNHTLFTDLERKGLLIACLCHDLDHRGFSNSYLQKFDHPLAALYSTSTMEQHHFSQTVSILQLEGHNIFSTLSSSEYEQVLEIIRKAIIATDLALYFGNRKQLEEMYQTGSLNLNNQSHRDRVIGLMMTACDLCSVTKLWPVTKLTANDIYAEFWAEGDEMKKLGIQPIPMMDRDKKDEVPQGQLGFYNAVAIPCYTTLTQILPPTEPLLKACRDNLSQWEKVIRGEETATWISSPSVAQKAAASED
Description: as §1, §2, §3

[2] = molecular target: T4, Phosphodiesterase PDE11A4 (Homo sapiens, UniProt Q9HCR9); experiment: Phosphodiesterase PDE11A4 enzyme assay; format: biochemical; settings: N=2, Example 3
T4 construct: host or cells: insect Sf9 cells
T4 sequence (Q9HCR9 whole entry): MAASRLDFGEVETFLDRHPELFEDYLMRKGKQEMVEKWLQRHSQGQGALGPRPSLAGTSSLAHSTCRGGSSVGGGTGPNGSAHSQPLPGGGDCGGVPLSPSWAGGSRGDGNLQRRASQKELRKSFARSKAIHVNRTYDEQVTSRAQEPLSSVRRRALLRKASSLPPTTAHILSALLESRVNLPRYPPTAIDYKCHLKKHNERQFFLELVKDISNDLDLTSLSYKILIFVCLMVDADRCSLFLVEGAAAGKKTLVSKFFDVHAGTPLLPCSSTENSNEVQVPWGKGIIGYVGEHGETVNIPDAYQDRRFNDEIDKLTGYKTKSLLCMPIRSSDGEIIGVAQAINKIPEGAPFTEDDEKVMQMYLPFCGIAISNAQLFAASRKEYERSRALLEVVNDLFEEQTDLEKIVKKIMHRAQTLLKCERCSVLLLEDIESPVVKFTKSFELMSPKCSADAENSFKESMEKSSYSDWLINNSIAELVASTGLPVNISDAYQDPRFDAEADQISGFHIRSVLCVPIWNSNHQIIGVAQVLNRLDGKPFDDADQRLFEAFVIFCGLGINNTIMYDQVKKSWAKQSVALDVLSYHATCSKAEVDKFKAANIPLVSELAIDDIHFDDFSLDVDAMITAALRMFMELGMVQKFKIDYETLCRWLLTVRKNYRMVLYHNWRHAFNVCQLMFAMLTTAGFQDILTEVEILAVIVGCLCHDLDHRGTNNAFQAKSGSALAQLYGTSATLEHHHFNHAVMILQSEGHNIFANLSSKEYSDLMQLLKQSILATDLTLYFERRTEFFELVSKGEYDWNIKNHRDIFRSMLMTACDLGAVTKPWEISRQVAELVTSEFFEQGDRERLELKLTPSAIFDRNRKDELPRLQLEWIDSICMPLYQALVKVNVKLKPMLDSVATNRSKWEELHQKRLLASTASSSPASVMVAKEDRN
Description: as §1, §2, §3

[3] = topical 0.5%, ear skin, vs IMQ control
[4] = topical 0.5%, maximum score 16, vs IMQ control

inhibition at 10 µM (Phosphodiesterase PDE2A): 9%
inhibition at 10 µM (Phosphodiesterase PDE7B): -1%
inhibition at 10 µM [1]: 11%
inhibition at 10 µM [2]: 14%
Compound: CNc1nc(Nc2ccccc2)nc(OCC(F)(F)C(F)F)n1 [compound of Formula (I), N^2-methyl-N^4-phenyl-6-(2,2,3,3-tetrafluoropropoxy)-1,3,5-triazine-2,4-diamine]
MPO activity in ear tissue homogenates (IMQ induced psoriasis; day 6, topical 0.5%, vs IMQ control): do not show significant inhibition
Back skin thickness (IMQ induced psoriasis; day 6 at termination, topical 0.5%, vs IMQ control): do not show significant reduction
Body weight / body weight loss (IMQ induced psoriasis; mouse, in vivo): significantly less
Cumulative clinical scores (erythema, skin thickness, scales) (IMQ induced psoriasis; topical 0.5%, back skin, maximum score 12, vs IMQ control): does not show any significant reduction
Extent of acanthosis, back skin (histopathology) (IMQ induced psoriasis; topical 0.5%, back skin, vs IMQ control): reduction
Ear thickness (IMQ induced psoriasis; topical 0.5%, daily, vs IMQ control): significant reduction in ear thickness on day 6
Cellular infiltration, ear (histopathology) (IMQ induced psoriasis; [3]): significant reduction
Extent of acanthosis, ear (histopathology) (IMQ induced psoriasis; [3]): significant reduction
Cumulative HP score of back skin (IMQ induced psoriasis; [4]): significant reduction
Overall cumulative HP scores of ear skin (IMQ induced psoriasis; [4]): significant reduction
Spleen weight or normalized spleen weight (IMQ induced psoriasis; topical 0.5%, vs IMQ control): do not show significant reduction
Cytokine levels in ear tissue homogenates (IMQ induced psoriasis; topical treatment, vs IMQ control): significant reduction in few of the proinflammatory cytokines
